The target in the assay is T1, xanthine oxidase (XO) (Bos taurus, UniProt P80457).
T1 construct: gene XDH
The assay is described as follows: xanthine oxidase inhibition assay with Lineweaver-Burk kinetics (IC50 […]; KI […]). In kind it is biochemical.

T1 sequence (P80457 2-1332): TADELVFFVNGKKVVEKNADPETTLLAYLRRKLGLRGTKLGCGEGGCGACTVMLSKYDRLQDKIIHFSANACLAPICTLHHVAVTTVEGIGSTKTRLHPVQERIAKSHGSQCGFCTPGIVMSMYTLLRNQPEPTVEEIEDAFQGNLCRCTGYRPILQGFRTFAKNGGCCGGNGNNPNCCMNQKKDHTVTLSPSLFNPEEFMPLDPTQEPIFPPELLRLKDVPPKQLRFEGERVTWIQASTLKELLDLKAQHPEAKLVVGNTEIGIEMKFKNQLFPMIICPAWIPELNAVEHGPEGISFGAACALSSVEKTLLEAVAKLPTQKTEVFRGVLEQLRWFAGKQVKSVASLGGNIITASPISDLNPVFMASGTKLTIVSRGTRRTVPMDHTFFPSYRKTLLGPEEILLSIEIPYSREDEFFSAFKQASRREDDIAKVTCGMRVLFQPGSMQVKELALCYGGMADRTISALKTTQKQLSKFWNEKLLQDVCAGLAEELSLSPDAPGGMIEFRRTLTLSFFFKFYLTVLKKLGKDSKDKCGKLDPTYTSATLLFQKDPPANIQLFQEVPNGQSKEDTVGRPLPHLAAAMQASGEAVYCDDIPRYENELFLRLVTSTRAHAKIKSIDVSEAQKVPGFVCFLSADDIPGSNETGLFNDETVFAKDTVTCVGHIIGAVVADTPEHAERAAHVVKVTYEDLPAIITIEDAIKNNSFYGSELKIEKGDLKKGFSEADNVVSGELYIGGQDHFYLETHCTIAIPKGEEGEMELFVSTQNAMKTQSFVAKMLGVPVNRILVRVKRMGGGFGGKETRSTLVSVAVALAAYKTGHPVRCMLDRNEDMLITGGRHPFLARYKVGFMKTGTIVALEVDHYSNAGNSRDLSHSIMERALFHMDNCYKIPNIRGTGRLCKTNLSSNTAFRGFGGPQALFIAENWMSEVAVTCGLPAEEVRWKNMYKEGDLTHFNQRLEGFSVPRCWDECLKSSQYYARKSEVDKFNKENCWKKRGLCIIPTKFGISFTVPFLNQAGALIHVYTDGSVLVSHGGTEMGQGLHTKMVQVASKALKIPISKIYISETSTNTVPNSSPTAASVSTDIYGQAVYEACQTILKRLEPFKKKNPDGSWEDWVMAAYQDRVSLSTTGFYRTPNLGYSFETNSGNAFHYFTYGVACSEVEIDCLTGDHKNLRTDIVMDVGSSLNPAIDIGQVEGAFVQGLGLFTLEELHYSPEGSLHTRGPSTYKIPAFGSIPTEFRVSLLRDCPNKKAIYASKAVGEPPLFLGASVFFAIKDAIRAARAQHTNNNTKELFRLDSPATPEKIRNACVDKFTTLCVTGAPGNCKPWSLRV

In turn, `COc1cc(-c2cc(=O)c3c(O)cc(O)cc3o2)cc(OC)c1O` [tricin] registered a Ki of 0.47 µM.

The term Ki denotes a dissociation constant, usually derived from enzyme kinetics or from competition with a known ligand. A high value points to weaker binding.

For the origin of these results see article PMC6222886, “Isolation of Tricin as a Xanthine Oxidase Inhibitor from Sweet White Clover (Melilotus albus) and Its Distribution in Selected Gramineae Species” (Molecules : A Journal of Synthetic Chemistry and Natural …, 2018).
